Data from US20240269139A1, “COMPOUNDS FOR TARGETED PROTEIN DEGRADATION OF KINASES” (DANA-FARBER CANCER INSTITUTE, INC., priority 2020, published 2024).
Where two headings read alike, the source gives them in different places.

Tests used:
Assay type in all cases: cell-based
[1] = target: T1, protein kinases (human kinome) (Homo sapiens, UniProt Q8TAS1)
T1 sequence (Q8TAS1 1-419): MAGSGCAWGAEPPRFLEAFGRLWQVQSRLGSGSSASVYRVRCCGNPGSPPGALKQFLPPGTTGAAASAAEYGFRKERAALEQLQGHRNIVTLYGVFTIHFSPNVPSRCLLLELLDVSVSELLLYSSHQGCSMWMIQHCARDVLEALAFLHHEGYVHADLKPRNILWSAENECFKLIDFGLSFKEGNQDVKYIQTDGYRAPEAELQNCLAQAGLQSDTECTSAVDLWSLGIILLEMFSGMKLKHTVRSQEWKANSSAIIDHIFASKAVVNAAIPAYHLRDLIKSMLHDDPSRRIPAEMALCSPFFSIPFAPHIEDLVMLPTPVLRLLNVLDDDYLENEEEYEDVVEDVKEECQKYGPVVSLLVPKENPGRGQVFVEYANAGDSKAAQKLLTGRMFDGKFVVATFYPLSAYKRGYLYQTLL

[2] = target: protein kinases (human kinome) (Homo sapiens, UniProt P07947); conditions: YES1 (P07947)
[3] = target: protein kinases (human kinome) (Homo sapiens, UniProt Q16584)
[4] = target: T2, protein kinases (human kinome) (Homo sapiens, UniProt Q14CZ7); conditions: Accession Q14CZ7; experiment wp152; direction down
T2 sequence (Q14CZ7 1-662): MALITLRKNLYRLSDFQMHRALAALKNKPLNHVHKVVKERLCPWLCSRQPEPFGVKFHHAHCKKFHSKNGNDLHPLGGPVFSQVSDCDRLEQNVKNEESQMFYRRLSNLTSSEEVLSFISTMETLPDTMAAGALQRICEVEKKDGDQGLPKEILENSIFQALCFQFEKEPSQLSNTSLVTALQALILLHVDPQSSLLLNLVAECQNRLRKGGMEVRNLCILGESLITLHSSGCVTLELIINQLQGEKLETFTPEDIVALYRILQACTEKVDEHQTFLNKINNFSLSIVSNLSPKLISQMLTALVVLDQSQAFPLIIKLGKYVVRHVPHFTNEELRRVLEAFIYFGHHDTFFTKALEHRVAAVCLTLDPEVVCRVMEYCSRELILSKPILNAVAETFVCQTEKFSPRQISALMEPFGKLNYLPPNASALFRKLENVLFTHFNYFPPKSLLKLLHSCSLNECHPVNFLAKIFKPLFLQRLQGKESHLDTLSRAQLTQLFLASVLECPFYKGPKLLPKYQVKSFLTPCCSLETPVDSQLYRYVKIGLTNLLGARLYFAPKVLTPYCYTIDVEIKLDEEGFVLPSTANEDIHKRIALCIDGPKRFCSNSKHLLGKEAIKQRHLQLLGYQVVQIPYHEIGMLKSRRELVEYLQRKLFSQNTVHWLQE

[5] = target: protein kinases (human kinome) (Homo sapiens, UniProt P51812); conditions: RPS6KA3 (P51812), experiment wp160, 8 hr
[6] = target: protein kinases (human kinome) (Homo sapiens, UniProt P41240); conditions: for logFC of CSK: Accession P41240; for logFC CSK: CSK (P41240), down
Sequence of protein kinases (human kinome) (Homo sapiens, UniProt P41240) (P41240 whole entry): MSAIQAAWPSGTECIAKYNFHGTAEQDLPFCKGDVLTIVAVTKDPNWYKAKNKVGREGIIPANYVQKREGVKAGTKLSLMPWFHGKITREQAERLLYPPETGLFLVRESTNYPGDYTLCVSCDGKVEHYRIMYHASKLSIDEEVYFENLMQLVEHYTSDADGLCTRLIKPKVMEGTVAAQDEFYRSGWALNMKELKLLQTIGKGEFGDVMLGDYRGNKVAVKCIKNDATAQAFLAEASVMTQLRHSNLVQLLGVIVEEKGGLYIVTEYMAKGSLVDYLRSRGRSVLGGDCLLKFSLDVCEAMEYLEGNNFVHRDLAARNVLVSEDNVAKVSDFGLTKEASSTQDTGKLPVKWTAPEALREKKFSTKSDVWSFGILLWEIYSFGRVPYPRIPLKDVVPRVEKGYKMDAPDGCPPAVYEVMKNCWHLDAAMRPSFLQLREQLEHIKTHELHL

Sequence of protein kinases (human kinome) (Homo sapiens, UniProt Q16584) (Q16584 whole entry): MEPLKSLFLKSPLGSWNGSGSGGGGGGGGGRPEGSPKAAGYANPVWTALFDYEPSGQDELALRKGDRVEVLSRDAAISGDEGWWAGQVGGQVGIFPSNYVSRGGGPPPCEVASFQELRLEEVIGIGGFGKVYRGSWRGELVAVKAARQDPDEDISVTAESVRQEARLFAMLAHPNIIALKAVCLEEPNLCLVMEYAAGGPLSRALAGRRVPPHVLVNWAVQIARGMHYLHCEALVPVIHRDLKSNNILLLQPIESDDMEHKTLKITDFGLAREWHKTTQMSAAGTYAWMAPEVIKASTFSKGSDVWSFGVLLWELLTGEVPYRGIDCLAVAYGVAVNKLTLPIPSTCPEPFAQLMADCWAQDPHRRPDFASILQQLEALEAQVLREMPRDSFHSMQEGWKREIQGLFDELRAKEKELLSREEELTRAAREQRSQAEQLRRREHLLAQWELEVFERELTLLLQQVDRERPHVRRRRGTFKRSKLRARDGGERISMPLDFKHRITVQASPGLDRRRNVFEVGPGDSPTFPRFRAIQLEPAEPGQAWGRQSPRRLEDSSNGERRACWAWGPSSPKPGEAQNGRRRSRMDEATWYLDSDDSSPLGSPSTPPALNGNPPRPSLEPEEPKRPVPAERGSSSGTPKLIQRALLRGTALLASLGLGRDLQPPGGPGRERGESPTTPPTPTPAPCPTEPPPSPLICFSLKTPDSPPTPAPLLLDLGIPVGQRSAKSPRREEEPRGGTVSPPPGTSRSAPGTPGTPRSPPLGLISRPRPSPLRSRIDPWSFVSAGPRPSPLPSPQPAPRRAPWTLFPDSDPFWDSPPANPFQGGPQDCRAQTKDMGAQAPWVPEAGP
Sequence of protein kinases (human kinome) (Homo sapiens, UniProt P07947) (P07947 whole entry): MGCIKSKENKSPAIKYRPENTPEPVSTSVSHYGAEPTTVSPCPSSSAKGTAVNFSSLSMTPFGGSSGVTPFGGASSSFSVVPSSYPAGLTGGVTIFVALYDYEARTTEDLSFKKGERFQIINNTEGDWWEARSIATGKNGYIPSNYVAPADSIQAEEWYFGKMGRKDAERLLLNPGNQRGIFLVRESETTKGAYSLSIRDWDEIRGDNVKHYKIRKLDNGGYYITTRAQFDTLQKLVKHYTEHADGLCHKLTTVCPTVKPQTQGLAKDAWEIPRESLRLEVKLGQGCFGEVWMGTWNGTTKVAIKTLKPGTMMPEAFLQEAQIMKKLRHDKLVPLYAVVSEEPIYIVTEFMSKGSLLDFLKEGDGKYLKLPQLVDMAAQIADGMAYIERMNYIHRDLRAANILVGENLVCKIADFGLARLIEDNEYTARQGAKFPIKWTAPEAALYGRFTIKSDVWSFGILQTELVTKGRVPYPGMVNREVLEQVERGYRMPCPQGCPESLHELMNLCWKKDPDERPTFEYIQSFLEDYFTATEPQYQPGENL
Sequence of protein kinases (human kinome) (Homo sapiens, UniProt P51812) (P51812 whole entry): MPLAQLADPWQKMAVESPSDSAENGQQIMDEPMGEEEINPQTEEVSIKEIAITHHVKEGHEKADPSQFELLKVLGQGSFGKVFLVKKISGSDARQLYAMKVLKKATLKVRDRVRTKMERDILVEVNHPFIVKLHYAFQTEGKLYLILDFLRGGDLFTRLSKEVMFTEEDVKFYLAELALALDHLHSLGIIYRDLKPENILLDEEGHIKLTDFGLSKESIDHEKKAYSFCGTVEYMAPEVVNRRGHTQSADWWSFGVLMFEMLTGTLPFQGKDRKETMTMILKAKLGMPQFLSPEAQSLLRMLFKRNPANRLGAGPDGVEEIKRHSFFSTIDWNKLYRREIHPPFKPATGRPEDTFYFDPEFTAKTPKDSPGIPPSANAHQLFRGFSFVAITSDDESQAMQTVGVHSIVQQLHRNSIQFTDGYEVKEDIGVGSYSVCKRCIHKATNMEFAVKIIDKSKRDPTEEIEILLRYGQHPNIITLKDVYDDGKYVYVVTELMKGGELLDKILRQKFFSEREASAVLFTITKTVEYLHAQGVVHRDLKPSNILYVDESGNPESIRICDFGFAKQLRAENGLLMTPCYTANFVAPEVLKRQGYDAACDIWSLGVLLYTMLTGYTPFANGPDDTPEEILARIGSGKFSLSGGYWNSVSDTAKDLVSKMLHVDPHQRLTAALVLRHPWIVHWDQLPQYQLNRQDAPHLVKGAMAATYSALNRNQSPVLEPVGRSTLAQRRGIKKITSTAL

Cc1ccc(NC(=O)c2cccc(C(F)(F)F)c2)cc1N1Cc2cnc(Nc3ccc(N4CCN(Cc5cn(CCCCCOc6cccc7c6C(=O)N(C6CCC(=O)NC6=O)C7=O)nn5)CC4)nc3)nc2N(C)C1=O (stereo not shown) [DB0646, N-(3-(7-((6-(4-((1-(5-((2-(2,6-Dioxopiperidin-3-yl)-1,3-dioxoisoindolin-4-yl)oxy)pentyl)-1H-1,2,3-triazol-4-yl)methyl)piperazin-1-v)pyridin-3-yl)amino)-1-methyl-2-oxo-1,4-dihydropyrimido[4,5-d]pyrimidin-3(2H)-yl)-4-methylphenyl)-3-(trifluoromethyl)benzamide] was tested, and the “logFC UHMK1” value ([1]; Accession Q8TAS1, experiment wp107, direction down) was −0.3263, the “logFC UHMK1” value ([1]; Accession Q8TAS1, experiment wp117, direction down) was −0.4722 and the “logFC UHMK1” value ([1]; Accession Q8TAS1, experiment wp160, 2 hr, direction down) was −0.4468. For the same compound, the “logFC UHMK1” value ([1]; Accession Q8TAS1, experiment wp160, 4 hr, direction down) was −0.7551, the “logFC UHMK1” value ([1]; Accession Q8TAS1, experiment wp160, 8 hr, direction down) was −0.5196 and the “logFC UHMK1” value ([1]; UHMK1 (Q8TAS1), experiment wp045) was −0.3945. The “logFC UHMK1” value ([1]; UHMK1 (Q8TAS1), experiment wp107) was −0.3263, the “logFC UHMK1” value ([1]; UHMK1 (Q8TAS1), experiment wp117) was −0.4722 and the “logFC UHMK1” value ([1]; UHMK1 (Q8TAS1), experiment wp160, 2 hr) was −0.4468. For the same compound, the “logFC UHMK1” value ([1]; UHMK1 (Q8TAS1), experiment wp160, 4 hr) was −0.7551, the “logFC UHMK1” value ([1]; UHMK1 (Q8TAS1), experiment wp160, 8 hr) was −0.5196 and the “logFC UHMK1 (Q8TAS1)” value ([1]; experiment wp045) was −0.3945. It also gave a logFC ([2]; experiment wp105) of −0.3957, a logFC ([2]; experiment wp105, direction down) of −0.3957 and a logFC ([2]; experiment wp172) of −0.471. The logFC ([2]; experiment wp172, direction down) was −0.471, the “logFC MAP3K11 (Q16584)” value ([3]; experiment wp107) was −0.5077 and the “logFC MAP3K11 (Q16584)” value ([3]; experiment wp117) was −0.4308. The “logFC FASTKD3” value [4] was −0.3418, the logFC [5] was −0.3332 and the logFC ([5]; direction down) was −0.3332. The “logFC of CSK” value ([6]; experiment wp045) was −1.542, the “logFC of CSK” value ([6]; experiment wp103) was −1.282 and the “logFC of CSK” value ([6]; experiment wp105) was −0.6868. The “logFC of CSK” value ([6]; experiment wp107) was −1.311, the “logFC of CSK” value ([6]; experiment wp114) was −0.6932 and the “logFC of CSK” value ([6]; experiment wp117) was −1.414. For the same compound, the “logFC of CSK” value ([6]; experiment wp152) was −1.513, the “logFC of CSK” value ([6]; experiment wp160, 2 hr) was −0.8308 and the “logFC of CSK” value ([6]; experiment wp160, 4 hr) was −1.416. For the same compound, the “logFC of CSK” value ([6]; experiment wp160, 8 hr) was −1.753, the “logFC of CSK” value ([6]; experiment wp172) was −0.8538 and the “logFC CSK” value ([6]; experiment wp045) was −1.542. For the same compound, the “logFC CSK” value ([6]; experiment wp103) was −1.282, the “logFC CSK” value ([6]; experiment wp105) was −0.6868 and the “logFC CSK” value ([6]; experiment wp107) was −1.311. For the same compound, the “logFC CSK” value ([6]; experiment wp114) was −0.6932, the “logFC CSK” value ([6]; experiment wp117) was −1.414 and the “logFC CSK” value ([6]; experiment wp152) was −1.513. The “logFC CSK” value ([6]; experiment wp160, 2 hr) was −0.8308, the “logFC CSK” value ([6]; experiment wp160, 4 hr) was −1.416 and the “logFC CSK” value ([6]; experiment wp160, 8 hr) was −1.753. The “logFC CSK” value ([6]; experiment wp172) was −0.8538.
